Source: ChEMBL document CHEMBL1146550, “Sesquiterpenoid derivatives from Gonospermum elegans and their cytotoxic activity for HL-60 human promyelocytic cells” (J Nat Prod, 2003)
Active and inactive are the calls of the source. The rule behind the calls is not given here.

Columns and labels:
HL-60 [1] = assay: Induction of apoptosis in human HL60 cells assessed as apoptotic cells at 10 uM after 12 hrs by Hoechst staining-based fluorescence microscopy; type: functional
HL-60 [2] = assay: Induction of apoptosis in human HL60 cells assessed as PARP cleavage at 1 to 10 uM after 8 hrs by SDS-PAGE; type: functional, cell-based
HL-60 [3] = assay: Induction of apoptosis in human HL60 cells assessed as […] DNA fragmentation at 10 uM after 12 hrs by agarose gel electrophoresis; type: functional, cell-based
HL-60 [4] = assay: Antiproliferative activity against human HL60 cells after 24 hrs by MTT assay; type: functional, cell-based; conditions: for IC50: HL-60, 24 h
HL-60 [5] = assay: Induction of apoptosis in human HL60 cells assessed as PARP cleavage at 1 to 10 uM after 12 hrs by SDS-PAGE; type: functional, cell-based
HL-60 [6] = assay: Induction of apoptosis in human HL60 cells assessed as apoptotic cells after 12 hrs by Hoechst staining-based fluorescence microscopy; type: functional, cell-based
HL-60 [7] = assay: Induction of apoptosis in human HL60 cells assessed as apoptotic cells at 1 uM after 12 hrs by Hoechst staining-based fluorescence microscopy; type: functional
HL-60 [8] = assay: Induction of apoptosis in human HL60 cells assessed as PARP cleavage at 0.1 to 1 uM after 12 hrs by SDS-PAGE; type: functional, cell-based
HL-60 [9] = assay: Induction of apoptosis in human HL60 cells assessed as […] DNA fragmentation at 1 uM after 12 hrs by agarose gel electrophoresis; type: functional, cell-based
HL-60 [10] = assay: Induction of apoptosis in human HL60 cells assessed as peripheral nuclear chromatin condensation at 0.1 to 3 uM after 12 hrs by Hoechst staining-based fluorescence microscopy; type: functional, cell-based
HL-60 [11] = assay: Induction of apoptosis in human HL60 cells assessed as PARP cleavage at 0.1 to 1 uM after 8 hrs by SDS-PAGE; type: functional, cell-based

SMILES	Activity (HL-60 [1])	Activity (HL-60 [2])	Activity (HL-60 [3])	Activity (HL-60 [4])	IC50 (HL-60 [4])	Activity (HL-60 [5])	Activity (HL-60 [6])	Activity (HL-60 [7])	Activity (HL-60 [8])	Activity (HL-60 [9])	Activity (HL-60 [10])	Activity (HL-60 [11])
C=C1C(=O)O[C@H]2C[C@]3(C)[C@@H](OC(C)=O)CCC(=C)[C@@H]3[C@@H](OC(C)=O)[C@H]12	14.3%	Active	Active	Dose-dependent effect	5.3 µM	Active	Dose-dependent effect					
C=C1C(=O)O[C@H]2C[C@@]3(C)[C@H](C(=C)CC[C@@H]3O)[C@@H](O)[C@H]12 [ELEGALACTONE A]					55.1 µM							
C=C1CC[C@H](OC(C)=O)/C(C)=C\[C@@H]2OC(=O)C(=C)[C@H]2[C@H](OC(C)=O)C1=O				Dose-dependent effect	0.25 µM		Dose-dependent effect	25.9%	Active	Active	Active	Active
